The numbers were not newly measured in patent US20020034548A1, “STABILIZED ASCORBIC COMPOSITION” (priority 1998, published 2002), which cites them from elsewhere.

The conditions of data set [1]: pH 5.0.
The conditions of data set [2]: 5% ascorbic acid solution.

Take `O=C1O[C@H]([C@@H](O)CO)C(O)=C1O` [L-ascorbic acid]: the ascorbic acid deprotonated result (2% aqueous solution at 25° C.) was “About 2.4%”. Also, the pK1 (aqueous solution, room temperature) is recorded as 4.17. In addition, in data set [1], the redox potential entry is reported as “+0.127 V”. The “time to completely decay into oxidized form” value in data set [2] is listed as “a few days”.
